From ChEMBL document CHEMBL5506055, “Hit-to-Lead Optimization of the Natural Product Oridonin as Novel NLRP3 Inflammasome Inhibitors with Potent Anti-Inflammation Activity” (J Med Chem, 2024)
The source made the active and inactive calls. The calls are words filed in the database; no cut-off is given here.

Key:
Mus musculus = test: Antiinflammatory activity in MSU-induced C57BL/6 mouse model of arthritis assessed as reduction in inflammatory cell infiltration at 100 mg/kg, po measured after 24 hrs; assay type: functional, organism-based
[1] = AUC in ICR mouse at 1 mg/kg, iv measured upto 24 hrs by LC-MS/MS method; assay type: ADME, organism-based; conditions: in vivo, iv, 1 mg/kg, 24 h

Question: With C=C1C(=O)[C@]23[C@H](O)[C@H]1CC[C@H]2[C@]12C=CCC(C)(C)[C@H]1[C@H](O)[C@@]3(OCCC(=O)O)OC2 as the compound, how does the Activity (Mus musculus) read?
Answer: The Activity was “Active”.

Question: What about the AUC [1] of the same compound?
Answer: Its AUC is 242 ng·h/mL.
